Our source for the Ki values is ChEMBL document CHEMBL1128516, “A check on rational drug design: crystal structure of a complex of human immunodeficiency virus type 1 protease with a novel gamma-turn mimetic inhibitor” (J Med Chem, 1995).

SMILES strings stand for the structures.

For this assay, the target named is Human immunodeficiency virus type 1 protease (Human immunodeficiency virus 1, UniProt Q72874). As to the kind of experiment: Competitive inhibitory activity against HIV-1 protease.

By Ki is commonly meant the equilibrium dissociation constant of an inhibitor or competing ligand from its target. A lower Ki goes with tighter binding. `COC(=O)C(NC(=O)C(NC(=O)[C@H](C)N1CCC(C(C)N(C)C(C)C(=O)O)=CC(Cc2ccccc2)C1=O)C(C)C)C(C)C` (stereo partly specified) returned a Ki of 147 µM.
